Converted amounts (≈) assume the structure as drawn.

One may read the MIC as the lowest concentration found to suppress growth. Read a high MIC as a less susceptible organism.

What all share (format): cell-based
Assay [1] deals with Kleb. pneumo. SK 1200. The assay is described as follows: MIC by standard agar inclusion method, Kleb. pneumo. SK 1200.
Assay [2] concerns Pseudo. aeruginosa HH63. The assay is described as follows: MIC by standard agar inclusion method, Pseudo. aeruginosa HH63. The settings on record: Pseudomonas aeruginosa.
The subject of assay [3] is Shigella paradysentiae. Kind of assay: MIC by standard agar inclusion method, Shigella paradysentiae.
For assay [4], the system named is Kleb. pneumo. SK 4200. Kind of assay: MIC by standard agar inclusion method, Kleb. pneumo. SK 4200.
Assay [5] deals with E. Coli SK 12140. Kind of assay: MIC by standard agar inclusion method, E. Coli SK 12140. The settings on record: Escherichia coli.
Assay [6] has as its system Strep. faecalis HH 34358. Kind of assay: MIC by standard agar inclusion method, Strep. faecalis HH 34358. The settings on record: Enterococcus faecalis, HH34358.
Assay [7] relates to Salmonella ATCC 12176. The assay is described as follows: MIC by standard agar inclusion method, Salmonella ATCC 12176. The note with it: ATCC12176.
The subject of assay [8] is S. aureus SK 23390. Kind of assay: MIC by standard agar inclusion method, S. aureus SK 23390. The settings on record: Staphylococcus aureus, SK23390.
Assay [9] has as its system E. Coli HH 33779. The assay is described as follows: MIC by standard agar inclusion method, E. Coli HH 33779. The note with it: Escherichia coli.
For assay [10], the system named is Entero. aerogenes ATCC 13048. Kind of assay: MIC by standard agar inclusion method, Entero. aerogenes ATCC 13048. The note with it: Klebsiella aerogenes, ATCC13048.
Assay [11] has as its system Serratia marc. ATCC 13880. Kind of assay: MIC by standard agar inclusion method, Serratia marc. ATCC 13880. The note with it: ATCC13880.
For assay [12], the system named is S. aureus Villaluz. Kind of assay: MIC by standard agar inclusion method, S. aureus Villaluz. The note with it: Staphylococcus aureus.
For assay [13], the system named is S. aureus HH 127. Kind of assay: MIC by standard agar inclusion method, S. aureus HH 127. The note with it: Staphylococcus aureus, HH127.

Take `Cc1nnc(SCC2=C(C(=O)O)N3C(=O)C(NC(=O)CSCC#N)[C@H]3SC2)s1` (stereo partly drawn) [Compound 21436, 7-Cyanomethylmercaptoacetamido-3-(5-methyl-1,3,4-thiadiazol-2-ylthiomethyl)-3-cephem-4-carboxylic acid]: the MIC in assay [1] was 0.8 µg/mL (≈ 1.75 µM); in assay [2], greater than 200 µg/mL; in assay [3], 1.6 µg/mL (≈ 3.5 µM); in assay [4], 1.6 µg/mL (≈ 3.5 µM); in assay [5], 1.6 µg/mL (≈ 3.5 µM); in assay [6], 6.3 µg/mL (≈ 13.8 µM). The MIC in assay [7] is 1.6 µg/mL (≈ 3.5 µM); in assay [8], 0.1 µg/mL (≈ 0.219 µM); in [9], 6.3 µg/mL (≈ 13.8 µM); in assay [10], greater than 200 µg/mL; in [11] it was greater than 200 µg/mL; in assay [12], 25 µg/mL (≈ 54.6 µM). In assay [13], this molecule had an MIC of 0.2 µg/mL (≈ 0.437 µM).
Turning to `CC(=O)OCC1=C(C(=O)O)N2C(=O)C(NC(=O)CS(=O)(=O)CC#N)C2SC1` (stereo not drawn) [Compound 90246, 7-cyanomethylsulfonylacetamidocephalosporanic acid], the MIC is 6.3 µg/mL (≈ 15.1 µM) in [1]; greater than 200 µg/mL in assay [2]; 6.3 µg/mL (≈ 15.1 µM) in assay [3]; 25 µg/mL (≈ 59.9 µM) in assay [4]; 6.3 µg/mL (≈ 15.1 µM) in assay [5]; 50 µg/mL (≈ 120 µM) in [6]. For the same molecule, the minimal inhibitory concentration (MIC) in [7] is 3.1 µg/mL (≈ 7.43 µM); in assay [8], 1.6 µg/mL (≈ 3.83 µM); in assay [9] it was 25 µg/mL (≈ 59.9 µM); in [10] it was 50 µg/mL (≈ 120 µM); in assay [11], greater than 200 µg/mL; in assay [12], 25 µg/mL (≈ 59.9 µM). This molecule came in with an MIC in assay [13] of 1.6 µg/mL (≈ 3.83 µM).
On to `CC(=O)OCC1=C(C(=O)O)N2C(=O)C(NC(=O)CSCC#N)C2SC1` (stereo not drawn) [Compound 79336, 7-Cyanomethylmercaptoacetamidocephalosporanic acid], for which the minimal inhibitory concentration (MIC) in assay [1] was 6.3 µg/mL (≈ 16.3 µM); in assay [2], greater than 200 µg/mL; in assay [3], 6.3 µg/mL (≈ 16.3 µM); in assay [4], 1.6 µg/mL (≈ 4.15 µM); in assay [5], 6.3 µg/mL (≈ 16.3 µM); in [6], 12.5 µg/mL (≈ 32.4 µM). For the same molecule, the MIC in assay [7] was 1.6 µg/mL (≈ 4.15 µM); in [8] it was 0.8 µg/mL (≈ 2.08 µM); in assay [9], 12.5 µg/mL (≈ 32.4 µM); in [10], greater than 200 µg/mL; in assay [11], greater than 200 µg/mL; in assay [12], 25 µg/mL (≈ 64.9 µM). The lowest concentration to inhibit growth in assay [13] (MIC) was 0.2 µg/mL (≈ 0.519 µM).
For the molecule `Cn1nnnc1SCC1=C(C(=O)O)N2C(=O)C(NC(=O)CS(=O)(=O)CC#N)[C@H]2SC1` (stereo partly drawn) [Compound 72346, 7-Cyanomethylsulfonylacetamido-3-(1-methyltetrazol-5-ylthiomethyl)-3-cephem-4-carboxylic acid], the MIC in assay [1] is 1.6 µg/mL (≈ 3.38 µM); in assay [2], greater than 200 µg/mL; in assay [3], 1.6 µg/mL (≈ 3.38 µM); in [4], 1.6 µg/mL (≈ 3.38 µM); in [5], 1.6 µg/mL (≈ 3.38 µM); in assay [6], 50 µg/mL (≈ 106 µM). The minimal inhibitory concentration (MIC) is 1.6 µg/mL (≈ 3.38 µM) in [7]; 1.6 µg/mL (≈ 3.38 µM) in assay [8]; 3.1 µg/mL (≈ 6.55 µM) in [9]; 6.3 µg/mL (≈ 13.3 µM) in assay [10]; greater than 200 µg/mL in assay [11]; 25 µg/mL (≈ 52.8 µM) in assay [12]. Further, 1.6 µg/mL (≈ 3.38 µM) was the least that counted as inhibitory in [13] (MIC).
Regarding `Cn1nnnc1SCC1=C(C(=O)O)N2C(=O)C(NC(=O)CSCC#N)[C@H]2SC1` (stereo partly drawn) [Compound 94436, 7-Cyanomethylmercaptoacetamido-3-(1-methyltetrazol-5-ylthiomethyl)-3-cephem-4-carboxylic acid], the minimum inhibitory concentration (MIC) in [1] is 1.6 µg/mL (≈ 3.62 µM); in assay [2] it was greater than 200 µg/mL; in assay [3] it was 0.8 µg/mL (≈ 1.81 µM); in assay [4], 1.6 µg/mL (≈ 3.62 µM); in assay [5] it was 0.8 µg/mL (≈ 1.81 µM); in assay [6] it was 50 µg/mL (≈ 113 µM). Besides, the minimum inhibitory concentration (MIC) in assay [7] is 0.4 µg/mL (≈ 0.906 µM); in [8], 0.4 µg/mL (≈ 0.906 µM); in assay [9] it was 1.6 µg/mL (≈ 3.62 µM); in assay [10], 12.5 µg/mL (≈ 28.3 µM); in assay [11] it was greater than 200 µg/mL; in assay [12] it was 12.5 µg/mL (≈ 28.3 µM). This molecule also came in with a minimal inhibitory concentration (MIC) in [13] of 0.4 µg/mL (≈ 0.906 µM).
With `Cc1nnc(SCC2=C(C(=O)O)N3C(=O)C(NC(=O)CS(=O)(=O)CC#N)[C@H]3SC2)s1` (stereo partly drawn) [Compound 09346, 7-Cyanomethylsulfonylacetamido-3-(5-methyl-1,3,4-thiadiazol-2-ylthiomethyl)-3-cephem-4-carboxylic acid], the MIC is 3.1 µg/mL (≈ 6.33 µM) in assay [1]; greater than 200 µg/mL in [2]; 3.1 µg/mL (≈ 6.33 µM) in [3]; 6.3 µg/mL (≈ 12.9 µM) in [4]; 3.1 µg/mL (≈ 6.33 µM) in assay [5]; 25 µg/mL (≈ 51.1 µM) in assay [6]. Further, the minimum inhibitory concentration (MIC) in assay [7] was 6.3 µg/mL (≈ 12.9 µM); in assay [8], 1.6 µg/mL (≈ 3.27 µM); in [9], 6.3 µg/mL (≈ 12.9 µM); in assay [10], 12.5 µg/mL (≈ 25.5 µM); in [11], greater than 200 µg/mL; in assay [12], 100 µg/mL (≈ 204 µM). The same molecule had an MIC in assay [13] of 1.6 µg/mL (≈ 3.27 µM).

Source of the values: patent publication US3963711A, “Cyanomethyl sulfinyl- and sulfonyl-acetamido cephalosporins” (SmithKline Corporation, priority 1975, dated 1976).
